Assays:
NCI-H322M = assay: Antiproliferative activity against human NCI-H322M cells assessed as cell growth at 10^-8 M after 48 hrs by sulforhodamine B assay; assay type: functional; details: read-out: Activity
MDA-MB-435 [1] = assay: Antiproliferative activity against human MDA-MB-435 cells assessed as cell growth at 10^-6 M after 48 hrs by sulforhodamine B assay; assay type: functional; details: MDA-MB-435, 48 h, read-out: Activity
T47D = assay: Antiproliferative activity against human T47D cells assessed as cell growth at 10^-8 M after 48 hrs by sulforhodamine B assay; assay type: functional; details: read-out: Activity
[2] = Antiproliferative activity against human UACC62 cells assessed as cell growth at 10^-8 M after 48 hrs by sulforhodamine B assay; assay type: functional; details: UACC-62, 48 h, read-out: Activity
[3] = Antiproliferative activity against human HCC2998 cells assessed as cell growth at 10^-8 M after 48 hrs by sulforhodamine B assay; assay type: functional; details: HCC 2998, 48 h, read-out: Activity
K562 = assay: Antiproliferative activity against human K562 cells assessed as growth inhibition after 48 hrs by sulforhodamine B assay; assay type: functional; details: K562, 48 h; for CC50: read-out: LC50 (the source's name)
[4] = Antiproliferative activity against human SW620 cells assessed as cell growth at […] M after 48 hrs by sulforhodamine B assay; assay type: functional; details: SW-620, 48 h, read-out: Activity
[5] = Antiproliferative activity against human SF539 cells assessed as cell growth at 10^-8 M after 48 hrs by sulforhodamine B assay; assay type: functional; details: SF-539, 48 h, read-out: Activity
[6] = Antiproliferative activity against human Hs 578T cells assessed as cell growth at 10^-7 M after 48 hrs by sulforhodamine B assay; assay type: functional; details: read-out: Activity
A549 = assay: Antiproliferative activity against human A549/ATCC cells assessed as cell growth at 10^-8 M after 48 hrs by sulforhodamine B assay; assay type: functional; details: A549, 48 h, read-out: Activity
[7] = Antiproliferative activity against human UACC62 cells assessed as growth inhibition after 48 hrs by sulforhodamine B assay; assay type: functional; details: UACC-62, 48 h; for CC50: read-out: LC50 (the source's name)
[8] = Antiproliferative activity against human SW620 cells assessed as cell growth at 10^-7 M after 48 hrs by sulforhodamine B assay; assay type: functional; details: SW-620, 48 h, read-out: Activity
CYP2C19 = CYP2C19 (Homo sapiens, UniProt P33261); assay: Inhibition of recombinant human CYP2C19 assessed as remaining enzyme activity at 10 uM after 5 mins in presence of NADP by fluorescence plate reader analysis; assay type: ADME; details: read-out: Activity
Chain of CYP2C19 (P33261 whole entry): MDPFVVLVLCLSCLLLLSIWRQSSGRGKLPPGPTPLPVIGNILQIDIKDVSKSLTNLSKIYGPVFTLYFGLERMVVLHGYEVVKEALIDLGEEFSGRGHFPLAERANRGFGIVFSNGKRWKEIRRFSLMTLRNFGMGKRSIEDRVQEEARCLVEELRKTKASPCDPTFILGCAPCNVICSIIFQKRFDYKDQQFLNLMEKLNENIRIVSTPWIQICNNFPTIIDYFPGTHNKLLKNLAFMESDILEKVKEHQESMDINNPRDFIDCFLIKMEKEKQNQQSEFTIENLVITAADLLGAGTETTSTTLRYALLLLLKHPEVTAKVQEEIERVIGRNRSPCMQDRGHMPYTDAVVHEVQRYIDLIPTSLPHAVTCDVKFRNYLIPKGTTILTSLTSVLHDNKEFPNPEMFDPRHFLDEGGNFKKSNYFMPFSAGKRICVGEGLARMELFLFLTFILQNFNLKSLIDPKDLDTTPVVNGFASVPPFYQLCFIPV

CCRF-CEM = assay: Antiproliferative activity against human CCRF-CEM cells assessed as cell growth at 10^-4 M after 48 hrs by sulforhodamine B assay; assay type: functional; details: read-out: Activity
[9] = Antiproliferative activity against human SNB19 cells assessed as cell growth at 10^-4 M after 48 hrs by sulforhodamine B assay; assay type: functional; details: SNB-19, 48 h, read-out: Activity
NCI-H522 = assay: Antiproliferative activity against human NCI-H522 cells assessed as cell growth at 10^-7 M after 48 hrs by sulforhodamine B assay; assay type: functional; details: NCI-H522, 48 h, read-out: Activity
[10] = Antiproliferative activity against human SF295 cells assessed as cell growth at 10^-8 M after 48 hrs by sulforhodamine B assay; assay type: functional; details: SF-295, 48 h, read-out: Activity
[11] = Antiproliferative activity against human OVCAR5 cells assessed as cell growth at 10^-6 M after 48 hrs by sulforhodamine B assay; assay type: functional; details: OVCAR-5, 48 h, read-out: Activity
[12] = Antiproliferative activity against human SKOV3 cells assessed as cell growth at 10^-7 M after 48 hrs by sulforhodamine B assay; assay type: functional; details: SK-OV-3, 48 h, read-out: Activity
[13] = Antiproliferative activity against human Caki1 cells assessed as growth inhibition after 48 hrs by sulforhodamine B assay; assay type: functional; details: CAKI-1, 48 h; for CC50: read-out: LC50 (the source's name)
[14] = Antiproliferative activity against human OVCAR5 cells assessed as cell growth at 10^-8 M after 48 hrs by sulforhodamine B assay; assay type: functional; details: OVCAR-5, 48 h, read-out: Activity
[15] = Antiproliferative activity against human SKOV3 cells assessed as cell growth at 10^-6 M after 48 hrs by sulforhodamine B assay; assay type: functional; details: SK-OV-3, 48 h, read-out: Activity
[16] = Antiproliferative activity against human SW620 cells assessed as cell growth at 10^-4 M after 48 hrs by sulforhodamine B assay; assay type: functional; details: SW-620, 48 h, read-out: Activity
[17] = Antiproliferative activity against human HCC2998 cells assessed as cell growth at 10^-6 M after 48 hrs by sulforhodamine B assay; assay type: functional; details: HCC 2998, 48 h, read-out: Activity
NCI-H460 = assay: Antiproliferative activity against human NCI-H460 cells assessed as cell growth at 10^-6 M after 48 hrs by sulforhodamine B assay; assay type: functional; details: NCI-H460, 48 h, read-out: Activity
[18] = Antiproliferative activity against human MOLT4 cells assessed as cell growth at 10^-4 M after 48 hrs by sulforhodamine B assay; assay type: functional; details: MOLT-4, 48 h, read-out: Activity
[19] = Antiproliferative activity against human UO31 cells assessed as growth inhibition after 48 hrs by sulforhodamine B assay; assay type: functional; details: UO-31, 48 h; for CC50: read-out: LC50 (the source's name)
[20] = Antiproliferative activity against human RPMI8226 cells assessed as cell growth at 10^-8 M after 48 hrs by sulforhodamine B assay; assay type: functional; details: RPMI-8226, 48 h, read-out: Activity
[21] = Antiproliferative activity against human MOLT4 cells assessed as cell growth at 10^-7 M after 48 hrs by sulforhodamine B assay; assay type: functional; details: MOLT-4, 48 h, read-out: Activity
786-0 = assay: Antiproliferative activity against human 786-0 cells assessed as cell growth at […] after 48 hrs by sulforhodamine B assay; assay type: functional; details: 786-0, 48 h, read-out: Activity
KM12 = assay: Antiproliferative activity against human KM12 cells assessed as growth inhibition after 48 hrs by sulforhodamine B assay; assay type: functional; details: KM12, 48 h
[22] = Antiproliferative activity against human NCI-ADR-RES cells assessed as cell growth at 10^-7 M after 48 hrs by sulforhodamine B assay; assay type: functional; details: read-out: Activity
MDA-MB-435 [23] = assay: Antiproliferative activity against human MDA-MB-435 cells assessed as cell growth at 10^-4 M after 48 hrs by sulforhodamine B assay; assay type: functional; details: MDA-MB-435, 48 h, read-out: Activity
SN12C = assay: Antiproliferative activity against human SN12C cells assessed as cell growth at 10^-7 M after 48 hrs by sulforhodamine B assay; assay type: functional; details: read-out: Activity
M14 = assay: Antiproliferative activity against human M14 cells assessed as cell growth at 10^-6 M after 48 hrs by sulforhodamine B assay; assay type: functional; details: M14, 48 h, read-out: Activity
U-251 = assay: Antiproliferative activity against human U251 cells assessed as growth inhibition after 48 hrs by sulforhodamine B assay; assay type: functional; details: U-251, 48 h
[24] = Antiproliferative activity against human NCI-ADR-RES cells assessed as cell growth at 10^-8 M after 48 hrs by sulforhodamine B assay; assay type: functional; details: read-out: Activity

Question: With `CNC(=O)c1cc(Oc2ccc3nc(NC(=O)c4cc(C(F)(F)F)cc(C(F)(F)F)c4)sc3c2)ccn1` as the compound, how does the growth at 0.01 µM (NCI-H322M) read?
Answer: 91%

Question: What about the growth at 1 µM (MDA-MB-435 [1]) of the same compound?
Answer: 96%

Question: What about the growth at 0.01 µM (T47D) of the same compound?
Answer: 97%

Question: And the growth at 0.01 µM [2]?
Answer: 89%

Question: And the growth at 0.01 µM [3]?
Answer: 105%

Question: And the GI50 (K562)?
Answer: 3.53 µM

Question: What about the TGI (K562) of the same compound?
Answer: > 100 µM

Question: What about the CC50 (K562) of the same compound?
Answer: > 100 µM

Question: And the growth at 0.01 µM [4]?
Answer: 97%

Question: And the growth at 0.01 µM [5]?
Answer: 101%

Question: What about the growth at 0.1 µM [6] of the same compound?
Answer: 93%

Question: What about the growth at 0.01 µM (A549) of the same compound?
Answer: 92%

Question: What about the GI50 [7] of the same compound?
Answer: 2.71 µM

Question: And the TGI [7]?
Answer: 12.1 µM

Question: And the CC50 [7]?
Answer: 80.5 µM

Question: What about the growth at 0.1 µM [8] of the same compound?
Answer: 102%

Question: What about the activity at 5 min, 10 µM (CYP2C19) of the same compound?
Answer: 10.3%

Question: And the growth at 100 µM (CCRF-CEM)?
Answer: 25%

Question: What about the growth at 100 µM [9] of the same compound?
Answer: -28%

Question: And the growth at 0.1 µM (NCI-H522)?
Answer: 109%

Question: What about the growth at 0.01 µM [10] of the same compound?
Answer: 93%

Question: And the growth at 1 µM [11]?
Answer: 80%

Question: And the growth at 0.1 µM [12]?
Answer: 91%

Question: What about the GI50 [13] of the same compound?
Answer: 2.75 µM

Question: What about the TGI [13] of the same compound?
Answer: 10.7 µM

Question: What about the CC50 [13] of the same compound?
Answer: 62.3 µM

Question: And the growth at 0.01 µM [14]?
Answer: 96%

Question: What about the growth at 1 µM [15] of the same compound?
Answer: 90%

Question: What about the growth at 100 µM [16] of the same compound?
Answer: -10%

Question: What about the growth at 1 µM [17] of the same compound?
Answer: 102%

Question: And the growth at 1 µM (NCI-H460)?
Answer: 101%

Question: What about the growth at 100 µM [18] of the same compound?
Answer: -7%

Question: And the GI50 [19]?
Answer: 2.19 µM

Question: And the TGI [19]?
Answer: 8.95 µM

Question: And the CC50 [19]?
Answer: 97 µM

Question: And the growth at 0.01 µM [20]?
Answer: 97%

Question: What about the growth at 0.1 µM [21] of the same compound?
Answer: 87%

Question: What about the growth at 100 µM (786-0) of the same compound?
Answer: -71%

Question: And the GI50 (KM12)?
Answer: 2.7 µM

Question: What about the LC50 (KM12) of the same compound?
Answer: 92.7 µM

Question: What about the TGI (KM12) of the same compound?
Answer: 11 µM

Question: What about the growth at 0.1 µM [22] of the same compound?
Answer: 103%

Question: And the growth at 100 µM (MDA-MB-435 [23])?
Answer: -15%

Question: And the growth at 0.1 µM (SN12C)?
Answer: 101%

Question: And the growth at 1 µM (M14)?
Answer: 94%

Question: And the GI50 (U-251)?
Answer: 3.65 µM

Question: What about the LC50 (U-251) of the same compound?
Answer: 53.6 µM

Question: And the TGI (U-251)?
Answer: 13.7 µM

Question: And the growth at 0.01 µM [24]?
Answer: 102%

Question: Which GI50 (K562) does the source give for `CNC(=O)c1cc(Oc2ccc(NC(=O)Nc3ccc(Cl)c(C(F)(F)F)c3)cc2)ccn1` [SORAFENIB] here?
Answer: 3.16 µM

Question: And the TGI (K562)?
Answer: 100 µM

Question: What about the CC50 (K562) of the same compound?
Answer: 100 µM

Question: And the TGI [7]?
Answer: 5.01 µM

Question: And the CC50 [7]?
Answer: 20 µM

Question: And the GI50 [13]?
Answer: 3.16 µM

Question: What about the TGI [13] of the same compound?
Answer: 3.98 µM

Question: What about the CC50 [13] of the same compound?
Answer: 10 µM

Question: And the GI50 [19]?
Answer: 2.51 µM

Question: And the TGI [19]?
Answer: 7.94 µM

Question: What about the CC50 [19] of the same compound?
Answer: 39.8 µM

Question: And the TGI (KM12)?
Answer: 7.94 µM

Question: What about the GI50 (U-251) of the same compound?
Answer: 2 µM

Question: What about the TGI (U-251) of the same compound?
Answer: 6.31 µM
